In patent publication EP2818471A1, “Nitrogen bicyclic compounds as inhibitors for Scyl1 and Grk5” (Max-Planck-Gesellschaft zur Förderung der Wissenschaften …, priority 2013, dated 2014):

System: beta-TC6 cells
Assay: Insulin HTRF assay, relative activity Ar normalized to sunitinib
Assay type: cell-based
Conditions: Mus musculus, normalized to positive control sunitinib (5 µM = 100%), Table 10
Excerpt: For further screening of compounds derived from compounds described above for their ability to regulate insulin release an insulin HTRF® (Homogeneous Time-Resolved Fluorescence; Cisbio International, France) was used. This assay is based on two antibodies against insulin binding to different epitopes of insulin. One of these antibodies is coupled to Europium (Ab-Eu-Cryptate) and the other one to the fluorophore XL665 (Ab-XL665). Is insulin secreted into the supernatant of cell culture both antibodies can bind to insulin and come therefore into close proximity which allows upon excitation that energy transfer between (FRET) the long-life fluorescent donor Europium (cryptate) and the acceptors XL665. FRET increases proportionally with insulin concentration.
The automated assay protocol is as follows: • On day 1 15k beta-TC6 cells per well were seeded for 24 or 48 h in 50 µl complete medium. On day 2 or respective on day 3 the medium is removed and cells are washed with 60 µl 1xPBS and 20 µl induction buffer is added using BioTek washer. Subsequently, 10 µl Sunitininb (5 µM f.c.) or the test compound in induction buffer; 0.5% f.c. DMSO (CyBi-well) is transferred to the cells. The cells are then incubated at 37°C for 2, 3, 4h.
The HTRF assay is carried out using Greiner 384-well 784075 assay plates. First 10 µl supernatant is transferred from the cell plates in HTRF plates (CyBi-well). 10 µl of 0, 1, 2, and 4 ng/ml Insulin standard controls in assay medium is used as a control. To each well 10 µl of combined 1:25 Ab-XL665 (Acc) and 1:20 Ab-Eu-Cryptate (WellMate) are added and incubated for 120 min at RT in the dark. Finally HTRF is measured on ViewLux ultra high throughput microplate imager (PerkinElmer).
The evaluation software DataFactoty derives relative activities Ar according to the following equation: Ar = (V-R(0%control))/(R(100%control) -R(0%control)) × 100 [formula] […]
The activity of the compounds was classified according to their Ar (relative activity) into the following ranges: Ar ≥ 100% + + + +; 50% ≤ Ar < 100% + + +; 20% ≤ Ar < 50% + +; 10% < Ar < 20% + [formula] Table 10. Ar (relative activity) values of inventive compounds

Compound	Emax [%]
Clc1ccc(-c2cnc3cnc(-c4ccsc4)cn23)cc1 [compound 348, 3-(4-chlorophenyl)-6-(3-thienyl)imidazo[1,2-a]pyrazine]	50 to 100
COCCNc1ccc2ncc(-c3ccc(C(=O)Nc4ccc(OC)cc4)cc3)n2n1 [compound 7, 4-[6-(2-methoxyethylamino)imidazo[1,2-b]pyridazin-3-yl]-N-(4-methoxyphenyl)benzamide]	20 to 50
COc1cc(-c2cn3c(-c4ccc5c(ccn5C)c4)cnc3cn2)ccc1O [compound 400, 2-methoxy-4-[3-(1-methylindol-5-yl)imidazo[1,2-a]pyrazin-6-yl]phenol]	20 to 50
Clc1ccc(-c2cnc3cnc(-c4ccncc4)cn23)cc1 [compound 347, 3-(4-chlorophenyl)-6-(4-pyridyl)imidazo[1,2-a]pyrazine]	20 to 50
O=C(O)CCc1ccc(-c2cnc3cnc(-c4cccs4)cn23)cc1 [compound 332, 3-[4-[6-(2-thienyl)imidazo[1,2-a]pyrazin-3-yl]phenyl]propanoic acid]	20 to 50
CN(C)c1cccc(-c2cn3c(NC(=O)c4ccccc4)cnc3cn2)c1 [compound 268, N-[6-[3-(dimethylamino)phenyl]imidazo[1,2-a]pyrazin-3-yl]benzamide]	50 to 100
COc1ccc(CNc2ccc3ncc(-c4ccc(OC)cc4OC)n3n2)cc1 [compound 39, 3-(2,4-dimethoxyphenyl)-N-[(4-methoxyphenyl)methyl]imidazo[1,2-b]pyridazin-6-amine]	10 to 20
COc1cc(OC)cc(-c2cn3c(-c4cccs4)cnc3cn2)c1 [compound 426, 6-(3,5-dimethoxyphenyl)-3-(2-thienyl)imidazo[1,2-a]pyrazine]	20 to 50
COc1ccc(-c2ccc3ncc(-c4cccc(Cl)c4)n3n2)c(C)c1 [compound 125, 3-(3-chlorophenyl)-6-(4-methoxy-2-methyl-phenyl)imidazo[1,2-b]pyridazine]	10 to 20
Fc1cccc(-c2cnc3cnc(-c4cccs4)cn23)c1 [compound 390, 3-(3-fluorophenyl)-6-(2-thienyl)imidazo[1,2-a]pyrazine]	20 to 50
CS(=O)(=O)Nc1cccc(-c2cn3c(-c4ccc(Oc5ccccc5)cc4)cnc3cn2)c1 [compound 403, N-[3-[3-(4-phenoxyphenyl)imidazo[1,2-a]pyrazin-6-yl]phenyl]methanesulfonamide]	20 to 50
CC(=O)c1cccc(-c2cnc3cnc(-c4ccc(C(=O)NCCN(C)C)cc4)cn23)c1 [compound 411, 4-[3-(3-acetylphenyl)imidazo[1,2-a]pyrazin-6-yl]-N-(2-dimethylaminoethyl)benzamide]	20 to 50
CC(=O)c1cccc(-c2cnc3cnc(-c4cccnc4)cn23)c1 [compound 409, 1-[3-[6-(3-pyridyl)imidazo[1,2-a]pyrazin-3-yl]phenyl]ethanone]	20 to 50
N#Cc1cccc(-c2nnc3ccc(-c4ccccn4)cn23)c1 [compound 222, 3-[6-(2-pyridyl)-[1,2,4]triazolo[4,3-a]pyridin-3-yl]benzonitrile]	20 to 50
O=C(Nc1cnc2cnc(-c3ccc4ccccc4c3)cn12)C1CCOC1 (centres unmarked) [compound 275, N-[6-(2-naphthyl)imidazo[1,2-a]pyrazin-3-yl]tetrahydrofuran-3-carboxamide]	10 to 20
Clc1cccc(-c2nnc3ccc(-c4cncc5ccccc45)cn23)c1 [compound 205, 4-[3-(3-chlorophenyl)-[1,2,4]triazolo[4,3-a]pyridin-6-yl]isoquinoline]	50 to 100

Compound	Emax [%]
CC(C)N1CCN(c2ccc(-c3cn4c(-c5ccc(O)cc5)cnc4cn3)cc2)CC1 [compound 325, 4-[6-[4-(4-isopropylpiperazin-1-yl)phenyl]imidazo[1,2-a]pyrazin-3-yl]phenol]	20 to 50
FC(F)(F)Oc1ccc(-c2cn3c(-c4cccs4)cnc3cn2)cc1 [compound 418, 3-(2-thienyl)-6-[4-(trifluoromethoxy)phenyl]imidazo[1,2-a]pyrazine]	20 to 50
CC(=O)Nc1ccc(-c2cnc3ccc(-c4ccc(S(C)(=O)=O)cc4)nn23)cc1 [compound 149, N-[4-[6-(4-methylsulfonylphenyl)imidazo[1,2-b]pyridazin-3-yl]phenyl]acetamide]	10 to 20
NC(=O)c1ccc(-c2ccc3ncc(-c4cccc(OC(F)(F)F)c4)n3n2)cc1 [compound 117, 4-[3-[3-(trifluoromethoxy)phenyl]imidazo[1,2-b]pyridazin-6-yl]benzamide]	20 to 50
COc1ccc(-c2ccc3nnc(-c4cscn4)n3c2)c(C)c1 [compound 231, 4-[6-(4-methoxy-2-methyl-phenyl)-[1,2,4]triazolo[4,3-a]pyridin-3-yl]thiazole]	50 to 100
CN(C)CCCNC(=O)c1ccc(-c2cn3c(-c4ccc5c(ccn5C)c4)cnc3cn2)cc1 [compound 398, N-[3-(dimethylamino)propyl]-4-[3-(1-methylindol-5-yl)imidazo[1,2-a]pyrazin-6-yl]benzamide]	20 to 50
c1cc(-c2nnc3ccc(-c4ccc(N5CCOCC5)cc4)cn23)ccn1 [compound 176, 4-[4-[3-(4-pyridyl)-[1,2,4]triazolo[4,3-a]pyridin-6-yl]phenyl]morpholine]	20 to 50
COc1ccc(-c2nnc3ccc(-c4cccc(C(=O)N(C)C)c4)cn23)cc1OC [compound 188, 3-[3-(3,4-dimethoxyphenyl)-[1,2,4]triazolo[4,3-a]pyridin-6-yl]-N,N-dimethyl-benzamide]	50 to 100
FC(F)(F)c1cccc(C#Cc2ccc3nnc(-c4ccncc4)n3c2)c1 [compound 180, 3-(4-pyridyl)-6-[2-[3-(trifluoromethyl)phenyl]ethynyl]-[1,2,4]triazolo[4,3-a]pyridine]	10 to 20
CS(=O)(=O)c1cccc(-c2ccc3nnc(-c4cccc(OC(F)(F)F)c4)n3c2)c1 [compound 193, 6-(3-methylsulfonylphenyl)-3-[3-(trifluoromethoxy)phenyl]-[1,2,4]triazolo[4,3-a]pyridine]	50 to 100
CC(=O)c1ccc(-c2cn3c(-c4ccc(C(=O)NC5CC5)cc4)cnc3cn2)s1 [compound 434, 4-[6-(5-acetyl-2-thienyl)imidazo[1,2-a]pyrazin-3-yl]-N-cyclopropyl-benzamide]	20 to 50
Cc1cc(-c2cn3c(-c4ccc5ncccc5c4)cnc3cn2)cc(C)c1O [compound 442, 2,6-dimethyl-4-[3-(6-quinolyl)imidazo[1,2-a]pyrazin-6-yl]phenol]	20 to 50
CS(=O)(=O)c1ccc(-c2cnc3ccc(Cc4ccccc4)nn23)cc1 [compound 119, 6-benzyl-3-(4-methylsulfonylphenyl)imidazo[1,2-b]pyridazine]	10 to 20
COc1ccc(CNc2ccc3ncc(-c4ccc(O)cc4)n3n2)cc1 [compound 36, 4-[6-[(4-methoxyphenyl)methylamino]imidazo[1,2-b]pyridazin-3-yl]phenol]	20 to 50
c1cncc(CCNc2ccc3ncc(-c4ccc(N5CCOCC5)cc4)n3n2)c1 [compound 24, 3-(4-morpholinophenyl)-N-[2-(3-pyridyl)ethyl]imidazo[1,2-b]pyridazin-6-amine]	50 to 100
CC(=O)c1cccc(-c2cnc3ccc(-c4ccc(N)nc4)nn23)c1 [compound 153, 1-[3-[6-(6-amino-3-pyridyl)imidazo[1,2-b]pyridazin-3-yl]phenyl]ethanone]	20 to 50
